The subject of the experiment is SNU-16. In words: Western blot analysis of DNA damage (H2A.X Phospho-Ser139). The conditions noted are these: 8 hours, KM4008HV2LV3 10 μg/mL, H2O2 50 μM. In kind it is cell-based. How it is done: Anti-phospho-Histone H2A.X Ser139, clone JBW301 (Millipore Catalog No. 05-636) as a primary antibody and anti-mouse IgG, HRP-linked antibody (CST Catalog No. 7076) as a secondary antibody were used.
SNU-16 was seeded in 10 mL of the assay medium at a density of 2×10^4 cells/mL, and cultured at 37° C. under the conditions of 5% CO2 for 24 hours. Then, KM4008HV2LV3 (final concentration of 10 μg/mL), the solvent solution of antibody, or hydrogen peroxide (H2O2) (final concentration of 50 μM) was added. The cells were left at 37° C. under the conditions of 5% CO2 for 8 hours, and the suspending cells were recovered together with the culture supernatant.
The adherent cells were washed with D-PBS(−) (manufactured by Nacalai Tesque, Catalog No. 14249-95), and then 1.5 mL of TrypLE select (manufactured by Invitrogen, Catalog No. 12563-011) was added and left at 37° C. under the conditions of 5% CO2 for 5 minutes for detachment, and then mixed with the suspending cells recovered in advance to be used in the subsequent manipulations. […]
The cell lysate thus obtained was left on ice for 15 minutes, followed by centrifugation at 15,000 rpm for 15 minutes. The protein concentration in the supernatant thus obtained was determined using a BCA protein assay kit (manufactured by Pierce, Catalog No. 23225). […]
A general note: A western blot detects proteins with antibodies after separation by electrophoresis.

For `OO` [H2O2, hydrogen peroxide], the “Phosphorylation signals of H2A.X Ser139 (Western blot) compared to solvent-treated cells” value is reported as “increased”.

(Values after patent publication US20140134730A1, “METHOD FOR INHIBITING CELL PROLIFERATION BY OXIDATIVE STRESS” (KYOWA HAKKO KIRIN CO., LTD, priority 2012, published 2014).)
